In patent publication US4607012A, “Antibiotic SB 22484” (Gruppo Lepetit S.p.A., priority 1983, dated 1986) one finds MIC data, which are given here for two compounds.

One assay has as its system N. gonorrhoeae L 1596. The experiment in a line: in vitro antibacterial activity (standard dilution test). The assay is classed as cell-based. Particulars: Neisseria gonorrhoeae, L1596; N. gonorrhoeae L 1596, clinically isolated, resistant to spectinomycin; GC agar base + 1% Iso-Vitalex, CO2 enriched, 18-24 h, 37° C. How it is done:
(§1) Iso-Sensitest broth (Oxoid) and Todd-Hewitt broth (Difco) are used for staphylococci and streptococci, respectively, Neisseriae strains are cultured on GC agar base (Difco)+1% Iso-Vitalex (BBL) and Hemophylus is cultured on GC agar base (Difco)+1% Iso-Vitalex (BBL)+1% hemoglobin (Difco). Broth cultures are diluted so that the final inoculum is about 10^4 -10^5 colony forming units/ml (CFU/ml). […] Neisseriae strains are incubated in a CO2 enriched atmosphere.

The next assay relates to N. gonorrhoeae L 1599. Described as above. The assay is classed as cell-based. To be noted: Neisseria gonorrhoeae, L1599; N. gonorrhoeae L 1599, clinically isolated, penicillinase producing; GC agar base + 1% Iso-Vitalex, CO2 enriched, 18-24 h, 37° C. How it is done:
as §1

One may read the MIC as the least concentration at which growth counts as inhibited.

Structures are written as SMILES. Where only a bound is given, the exact number is not on record here.

Turning to `CN[C@@H]1[C@H](O)[C@H](NC)[C@H]2O[C@@]3(O)C(=O)C[C@@H](C)O[C@H]3O[C@@H]2[C@H]1O` [spectinomycin], the MIC with N. gonorrhoeae L 1596 is over 12 µg/mL.
On to `CC1(C)S[C@@H]2[C@H](NC(=O)Cc3ccccc3)C(=O)N2[C@H]1C(=O)O` [penicillin], for which the MIC with N. gonorrhoeae L 1599 is over 50 µg/mL.
